Measured values: PMC10907603, “MFSD7c functions as a transporter of choline at the blood–brain barrier” (Cell Research, 2024)
Where a chain is given by its changes, count along the chain named. Names and notes keep the numbering of the source.

Key:
Test in all cases: [3H]choline uptake in transfected HEK293 cells
Assay type in all cases: cell-based
[1] = molecular target: T1, MeMfsd7c (Oryzias latipes, UniProt H2LZ31); settings: 100 µM choline, DMEM with 10% FBS, 37 °C, 1 h; labelled compound
T1 construct: gene flvcr2b
T1 sequence (H2LZ31 1-532): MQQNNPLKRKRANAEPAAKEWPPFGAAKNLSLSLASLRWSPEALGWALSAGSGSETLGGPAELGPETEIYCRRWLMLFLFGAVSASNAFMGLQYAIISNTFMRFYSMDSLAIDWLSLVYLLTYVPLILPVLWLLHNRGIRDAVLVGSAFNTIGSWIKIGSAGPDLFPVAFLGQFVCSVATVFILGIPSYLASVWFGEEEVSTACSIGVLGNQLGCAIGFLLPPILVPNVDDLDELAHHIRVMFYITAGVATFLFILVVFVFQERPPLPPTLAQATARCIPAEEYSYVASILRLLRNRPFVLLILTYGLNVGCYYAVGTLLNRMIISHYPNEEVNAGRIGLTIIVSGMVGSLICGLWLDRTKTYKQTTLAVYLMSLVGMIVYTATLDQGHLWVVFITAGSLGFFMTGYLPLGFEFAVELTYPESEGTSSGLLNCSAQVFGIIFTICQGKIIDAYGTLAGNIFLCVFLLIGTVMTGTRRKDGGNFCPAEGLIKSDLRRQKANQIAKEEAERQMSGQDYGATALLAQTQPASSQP

[2] = molecular target: T2, XeMfsd7c (Xenopus tropicalis, UniProt Q28EC5); settings: 100 µM choline, DMEM with 10% FBS, 37 °C, 1 h; labelled compound
T2 construct: gene flvcr2
T2 sequence (Q28EC5 1-494): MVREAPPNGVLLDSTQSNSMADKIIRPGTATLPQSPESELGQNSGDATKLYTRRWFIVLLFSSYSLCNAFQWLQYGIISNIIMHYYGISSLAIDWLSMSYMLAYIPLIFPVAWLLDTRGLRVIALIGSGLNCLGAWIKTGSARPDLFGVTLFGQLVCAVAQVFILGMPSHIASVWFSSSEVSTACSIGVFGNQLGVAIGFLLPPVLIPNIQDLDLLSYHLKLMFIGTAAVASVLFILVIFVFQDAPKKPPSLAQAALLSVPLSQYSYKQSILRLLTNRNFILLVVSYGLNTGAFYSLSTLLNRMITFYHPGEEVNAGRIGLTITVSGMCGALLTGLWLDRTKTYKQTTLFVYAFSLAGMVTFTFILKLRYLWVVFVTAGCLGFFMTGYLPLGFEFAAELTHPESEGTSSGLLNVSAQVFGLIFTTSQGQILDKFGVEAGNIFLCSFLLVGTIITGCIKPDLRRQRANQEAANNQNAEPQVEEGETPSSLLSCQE

[3] = molecular target: T3, DaMfsd7c_a (Danio rerio, UniProt A0A0R4ILB2); settings: 100 µM choline, DMEM with 10% FBS, 37 °C, 1 h; labelled compound
T3 construct: gene flvcr2a
T3 sequence (A0A0R4ILB2 1-470): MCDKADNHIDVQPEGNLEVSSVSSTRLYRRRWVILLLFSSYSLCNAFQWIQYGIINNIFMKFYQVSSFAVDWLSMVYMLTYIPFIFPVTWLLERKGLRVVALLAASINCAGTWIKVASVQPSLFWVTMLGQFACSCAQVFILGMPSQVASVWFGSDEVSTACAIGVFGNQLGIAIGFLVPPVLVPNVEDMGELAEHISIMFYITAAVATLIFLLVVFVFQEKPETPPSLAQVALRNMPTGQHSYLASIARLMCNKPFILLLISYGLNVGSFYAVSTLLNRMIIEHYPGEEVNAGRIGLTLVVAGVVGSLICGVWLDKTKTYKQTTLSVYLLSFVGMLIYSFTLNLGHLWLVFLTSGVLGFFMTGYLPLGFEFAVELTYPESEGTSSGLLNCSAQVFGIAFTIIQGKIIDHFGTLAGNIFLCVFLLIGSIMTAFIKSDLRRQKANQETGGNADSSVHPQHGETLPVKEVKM

[4] = molecular target: T4, DaMfsd7c_b (Danio rerio, UniProt A0A8M9Q308); settings: 100 µM choline, DMEM with 10% FBS, 37 °C, 1 h; labelled compound
T4 construct: gene flvcr2b
T4 sequence (A0A8M9Q308 1-485): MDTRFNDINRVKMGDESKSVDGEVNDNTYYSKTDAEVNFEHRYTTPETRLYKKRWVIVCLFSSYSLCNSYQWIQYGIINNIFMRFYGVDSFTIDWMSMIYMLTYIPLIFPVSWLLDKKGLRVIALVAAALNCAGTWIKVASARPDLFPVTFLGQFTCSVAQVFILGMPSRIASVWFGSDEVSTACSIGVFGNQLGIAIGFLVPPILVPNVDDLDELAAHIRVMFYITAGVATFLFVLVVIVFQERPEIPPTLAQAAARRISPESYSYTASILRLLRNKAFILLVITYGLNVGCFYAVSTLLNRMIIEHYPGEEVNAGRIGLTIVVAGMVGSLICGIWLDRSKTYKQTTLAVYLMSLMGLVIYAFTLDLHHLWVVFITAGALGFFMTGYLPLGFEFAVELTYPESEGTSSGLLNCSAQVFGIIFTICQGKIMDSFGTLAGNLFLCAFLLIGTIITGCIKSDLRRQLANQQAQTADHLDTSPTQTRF

[5] = substrate: C[N+](C)(C)CCO; settings: co-expressed human choline kinase A (hChKA), DMEM with 10% FBS, 37 °C, 60 min, labelled compound
Excerpt: [3H]choline uptake in transfected HEK293 cells on hMfsd7c (human MFSD7c, FLVCR2) | The kinetics (Km) and Vmax for choline import by human Mfsd7c under this condition

[6] = substrate: C[N+](C)(C)CCO; settings: co-expressed human choline kinase A (hChKA), DMEM with 10% FBS, 37 °C, 60 min, labelled compound; remark: listed apart in the source
Excerpt: [3H]choline uptake in transfected HEK293 cells on hMfsd7c (human MFSD7c, FLVCR2) | The Km and Vmax for importing choline by S203Y mutant under this condition were […]

C[N+](C)(C)CCO [choline]
[3H]choline uptake in transfected HEK293 cells [1]: these MFSD7c orthologs also exhibited choline transport activity
[3H]choline uptake in transfected HEK293 cells [2]: these MFSD7c orthologs also exhibited choline transport activity
[3H]choline uptake in transfected HEK293 cells [3]: these MFSD7c orthologs also exhibited choline transport activity
[3H]choline uptake in transfected HEK293 cells [4]: these MFSD7c orthologs also exhibited choline transport activity

B1: hMfsd7c (human MFSD7c, FLVCR2) (Homo sapiens) (protein)
chain: MVNEGPNQEESDDTPVPESALQADPSVSVHPSVSVHPSVSINPSVSVHPSSSAHPSALAQPSGLAHPSSSGPEDLSVIKVSRRRWAVVLVFSCYSMCNSFQWIQYGSINNIFMHFYGVSAFAIDWLSMCYMLTYIPLLLPVAWLLEKFGLRTIALTGSALNCLGAWVKLGSLKPHLFPVTVVGQLICSVAQVFILGMPSRIASVWFGANEVSTACSVAVFGNQLGIAIGFLVPPVLVPNIEDRDELAYHISIMFYIIGGVATLLLILVIIVFKEKPKYPPSRAQSLSYALTSPDASYLGSIARLFKNLNFVLLVITYGLNAGAFYALSTLLNRMVIWHYPGEEVNAGRIGLTIVIAGMLGAVISGIWLDRSKTYKETTLVVYIMTLVGMVVYTFTLNLGHLWVVFITAGTMGFFMTGYLPLGFEFAVELTYPESEGISSGLLNISAQVFGIIFTISQGQIIDNYGTKPGNIFLCVFLTLGAALTAFIKADLRRQKANKETLENKLQEEEEESNTSKVPTAVSEDHL
notes: full-length cDNA in pcDNA3.1, transiently expressed in HEK293 cells
Km [5]: 100 µM

B2: hMfsd7c (human MFSD7c, FLVCR2) (Homo sapiens; S203Y) (protein)
chain: B1 chain with S203Y
notes: as for B1
Km [6]: 1197 µM
